The target in test [1] is T1, DnaK (Escherichia coli, UniProt P0A6Y8).
T1 construct: His6-Smt3 (N, cleaved yes); made in house; host or cells: E. coli BL21(DE3)
Put plainly: Peptide binding assay (fluorescence polarization), control/deglutathionylated DnaK. Details: species or system E. coli. The settings on record: ADP state; FP. How it is done: FP values are expressed in millipolarization units. All statistical analyses were performed with Origin 8 software.
FIGURE 6.

For another test, the system named is Hsp72. Details: method as in PMID 15540944. The settings on record: modification at Cys-267; ref [62]; cited from earlier work.
Test [2] has as its target T1, DnaK. Details: species or system E. coli. The settings on record: 0.5 mM ATP or ADP premixed 30 min with DnaK T199A; GSH and diamide. On the procedure:
To deglutathionylate the protein, 10 mM DTT was added to the reaction mixture. GSH, diamide, and/or DTT was removed by dialysis.
(§1) Cooled protein was mixed with the dye and incubated in the dark at room temperature for at least 30 min. SDS-PAGE was performed to separate protein and surplus dye. Fluorescence of Alexa Fluor 350 dye was observed using excitation at 254 nm with a UV lamp.
(§2) FIGURE 3. […] Unmodified cysteine residues for untreated control, glutathionylated, and deglutathionylated samples were labeled with fluorescent dye.

Test [3] concerns the target T1, DnaK. Set-up: species or system E. coli. The conditions noted are these: 1 mM ADP/ATP/NRLLLTG peptide, 1 h room temperature before DTNB; mean of three. On the procedure: A standard curve was obtained using 0–100 μM free cysteine. […] The number of active cysteine residues can be calculated by dividing the concentration of free thiols in the protein by the concentration of protein.
FIGURE 1. […] The N-terminal NBD and its subdomains IA, IB, IIA, and IIB and the C-terminal SBD are indicated. […] The number of free thiols was calculated from the absorbance at 412 nm using a standard curve.

The target of the next test is T2, glutathionylated DnaK (Escherichia coli, UniProt P0A6Y8).
T2 construct: His6-Smt3 (N, cleaved yes); made in house; host or cells: E. coli BL21(DE3)
Put plainly: Deglutathionylation of glutathionylated DnaK by Grx3/GSH. Set-up: species or system E. coli. The conditions noted are these: 10 μM glutathionylated DnaK, 30 min, 37 °C, […] Grx3 with 20 μM GSH. On the procedure:
[…] GSH, diamide, and/or DTT was removed by dialysis.
as §1, §2

The subject of another test is Ssa1. Details: method as in PMID 8939938, PMID 9753476, PMID 10462452. The settings on record: absence of nucleotide; ref [56], [60], [61]; cited from earlier work.
Test [4] concerns heat-induced luciferase aggregation. Details: method as in PMID 15109915. The conditions noted are these: ref [68]; cited from earlier work.

We go through seven molecules from publication PMC4807281 (The Journal of Biological Chemistry, 2016).

T1 sequence (P0A6Y8 2-638): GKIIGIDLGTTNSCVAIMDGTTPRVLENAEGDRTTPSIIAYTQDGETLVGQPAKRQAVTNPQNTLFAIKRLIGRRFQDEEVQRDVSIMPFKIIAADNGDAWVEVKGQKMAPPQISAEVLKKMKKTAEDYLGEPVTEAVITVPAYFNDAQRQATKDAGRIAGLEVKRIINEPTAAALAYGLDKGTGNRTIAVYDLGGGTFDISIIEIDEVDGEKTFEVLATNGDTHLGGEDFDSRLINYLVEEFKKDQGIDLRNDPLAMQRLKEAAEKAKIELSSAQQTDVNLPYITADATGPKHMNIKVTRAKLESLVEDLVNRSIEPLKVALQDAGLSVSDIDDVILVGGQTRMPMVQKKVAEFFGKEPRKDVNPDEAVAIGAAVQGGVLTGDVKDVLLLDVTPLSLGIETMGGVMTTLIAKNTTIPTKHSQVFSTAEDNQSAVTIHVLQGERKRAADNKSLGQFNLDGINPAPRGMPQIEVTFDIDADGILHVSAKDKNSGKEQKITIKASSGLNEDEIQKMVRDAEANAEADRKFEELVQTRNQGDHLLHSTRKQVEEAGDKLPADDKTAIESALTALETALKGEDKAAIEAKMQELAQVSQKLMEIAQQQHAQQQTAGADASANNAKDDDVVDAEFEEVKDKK
T2 sequence (P0A6Y8 2-638): as above

With `CC(C)C[C@H](NC(=O)[C@H](C)NC(=S)Nc1ccc2c(c1)C(=O)OC21c2ccc(O)cc2Oc2cc(O)ccc21)C(=O)N[C@@H](CC(C)C)C(=O)N[C@@H](CC(C)C)C(=O)N[C@@H](CO)C(=O)N[C@@H](C)C(=O)N1CCC[C@H]1C(=O)N[C@@H](CCCNC(=N)N)C(=O)N[C@@H](CCCNC(=N)N)C(=O)O`, the “effect of ADP binding to DnaK on binding affinity of peptide” value on DnaK [1] was “did not obviously alter the binding affinity of peptide”. Consider `CCCCCC(O)C=CC=O` (stereo not drawn) [4-Hydroxy-2-nonenal], for which, in the test on Hsp72, the “effect on protein refoldase activity of Hsp72” value is “inhibits its protein refoldase activity”. Regarding `Nc1ncnc2c1ncn2[C@@H]1O[C@H](COP(=O)(O)OP(=O)(O)O)[C@@H](O)[C@H]1O` [ADP], the “effect on glutathionylation of DnaK” value at DnaK [2] is “no glutathionylation of DnaK occurred”. Besides, the “effect on cysteine reactivity of DnaK” value at DnaK [3] is on record as “inhibited cysteine reactivity of DnaK to different degrees”. In the same order, the values of `Nc1ncnc2c1ncn2[C@@H]1O[C@H](COP(=O)(O)OP(=O)(O)OP(=O)(O)O)[C@@H](O)[C@H]1O` [ATP] are “no glutathionylation of DnaK occurred” and “inhibited cysteine reactivity of DnaK to different degrees”. For the molecule `N[C@@H](CCC(=O)N[C@@H](CS)C(=O)NCC(=O)O)C(=O)O` [GSH], the “deglutathionylation of DnaK” value on glutathionylated DnaK is recorded as “worked synergistically to cause deglutathionylation of DnaK”. For the molecule `CCN1C(=O)C=CC1=O` [N-ethylmaleimide], the “effect of modification on Ssa1” value with Ssa1 was “reduces transmembrane transport as well as the ATPase and luciferase refolding activities of Ssa1”. For the molecule “Hsc70: Hsp70 family member whose glutathionylation is cited”, in test [4], the “effect of glutathionylation of Hsc70” value was “enhance inhibition of heat-induced luciferase aggregation”.
